Measured values: patent publication US20220144838A1, “Compounds as Inhibitors of Macrophage Migration Inhibitory Factor” (NANJING IMMUNOPHAGE BIOTECH CO., LTD., priority 2019, published 2022)

Biological target: T1, MIF (Homo sapiens, UniProt P14174)
T1 sequence (P14174 2-115 limits assumed): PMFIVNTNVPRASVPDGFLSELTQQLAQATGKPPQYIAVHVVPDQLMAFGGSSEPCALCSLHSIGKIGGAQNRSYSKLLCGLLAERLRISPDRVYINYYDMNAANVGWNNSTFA
Test: MIF tautomerase assay using pHPP as substrate
Type: biochemical
Conditions: inhibition of the MIF enzyme in vitro; mean of multiple test results; read-out: Tautomerase Inhibition pIC50 (converted)
Procedure, shortened: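 Mean pIC50 derived from initial rates (absorbance progress-curve slopes) of MIF-catalyzed ketonic-to-enolic pHPP conversion, read as enol–borate complex. Reactions contained 1.5 mM substrate and 3 nM enzyme (final), 200 mM boric acid stock buffer, BSA and CHAPS, pH 6.0.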

| Structure (SMILES) | IC50 [nM] |
| --- | --- |
| Cc1nc(N2CCN(c3ccc(O)cc3)CC2)nc2c1ncn2-c1cc(Cl)cnn1 [Example 63, 4-(4-(9-(5-chloropyridazin-3-yl)-6-methyl-9H-purin-2-yl)piperazin-1-yl)phenol] | > 10000 |
| Nc1nc(N2CCN(c3ccc(O)cc3)CC2)nc2c1ncn2C1CCCC(C(=O)O)C1 (mixture of isomers) [Example 189, 3-(6-amino-2-(4-(4-hydroxyphenyl)piperazin-1-yl)-9H-purin-9-yl)cyclohexane-1-carboxylic acid] | > 10000 |
| CCOC(=O)c1nn(-c2nc(N3CCN(c4ccc(O)cc4)CC3)nc3c2ncn3CC(=O)O)c2ccccc12 [Example 33, 2-(6-(3-(ethoxycarbonyl)-1H-indazol-1-yl)-2-(4-(4-hydroxyphenyl)piperazin-1-yl)-9H-purin-9-yl)acetic acid] | 10 to 97.7 |
| Oc1ccc(C2(O)CCN(c3nc(N4C[C@H](O)[C@@H](O)C4)c4ncn(-c5ccncc5)c4n3)CC2)cc1 [Example 207, (3S,4S)-1-(2-(4-hydroxy-4-(4-hydroxyphenyl)piperidin-1-yl)-9-(pyridin-4-yl)-9H-purin-6-yl)pyrrolidine-3,4-diol] | 100 to 977 |
| C[C@H]1CN(c2ccc(O)cc2)CCN1c1nc(-n2ncc3ccccc32)c2ncn(CC(=O)O)c2n1 [Example 15, (S)-2-(2-(4-(4-hydroxyphenyl)-2-methylpiperazin-1-yl)-6-(1H-indazol-1-yl)-9H-purin-9-yl)acetic acid] | 1000 to 9770 |
| O=C(O)Cn1cnc2c(-c3cccc4[nH]ccc34)nc(N3CCN(c4ccc(O)cc4)CC3)nc21 [Example 118, 2-(2-(4-(4-hydroxyphenyl)piperazin-1-yl)-6-(1H-indol-4-yl)-9H-purin-9-yl)acetic acid] | 1000 to 9770 |
| Nc1nc(N2CCN(c3ccc(CO)cc3)CC2)nc2c1ncn2-c1ccncc1 [Example 192, (4-(4-(6-amino-9-(pyridin-4-yl)-9H-purin-2-yl)piperazin-1-yl)phenyl)methanol] | > 10000 |
| CC(C)(C(=O)O)n1cnc2c(-n3ncc4ccccc43)nc(N3CCN(c4ccc(O)cc4)CC3)nc21 [Example 128, 2-(2-(4-(4-hydroxyphenyl)piperazin-1-yl)-6-(1H-indazol-1-yl)-9H-purin-9-yl)-2-methylpropanoic acid] | 10 to 97.7 |
| O=C(O)Cn1cnc2c(-n3nc(-c4cccnc4)c4ccccc43)nc(N3CCN(c4ccc(O)cc4)CC3)nc21 [Example 36, 2-(2-(4-(4-hydroxyphenyl)piperazin-1-yl)-6-(3-(pyridin-3-yl)-1H-indazol-1-yl)-9H-purin-9-yl)acetic acid] | 100 to 977 |
| Cc1cc(C#N)ccc1-n1cnc2c(N)nc(N3CCN(c4ccc(O)cc4)CC3)nc21 [Example 70, 4-(6-amino-2-(4-(4-hydroxyphenyl)piperazin-1-yl)-9H-purin-9-yl)-3-methylbenzonitrile] | > 10000 |
| Oc1ccc(N2CCN(c3nc(NCc4ccccc4)c4ncn(-c5cccnc5)c4n3)CC2)cc1 [Example 90, 4-(4-(6-(benzylamino)-9-(pyridin-3-yl)-9H-purin-2-yl)piperazin-1-yl)phenol] | 1000 to 9770 |
| Nc1nc(N2CCN(c3ccc(O)cc3)CC2)nc2c1ncn2-c1cccc(O)c1 [Example 77, 3-(6-amino-2-(4-(4-hydroxyphenyl)piperazin-1-yl)-9H-purin-9-yl)phenol] | 1000 to 9770 |
| Oc1ccc(N2CCN(c3cc(-n4ncc5ccccc54)n4ncc(Br)c4n3)CC2)cc1 [Example 13, 4-(4-(3-bromo-7-(1H-indazol-1-yl)pyrazolo[1,5-a]pyrimidin-5-yl)piperazin-1-yl)phenol] | > 10000 |
| Nc1nc(N2CC(O)(c3ccc(CO)cc3)C2)nc2c1ncn2-c1ccncc1 [Example 214, 1-(6-amino-9-(pyridin-4-yl)-9H-purin-2-yl)-3-(4-(hydroxymethyl)phenyl) azetidin-3-ol] | > 10000 |
| O=C(O)Cn1cnc2c(-n3ncc4c(CO)cccc43)nc(N3CCN(c4ccc(O)cc4)CC3)nc21 [Example 16, 2-(6-(4-(hydroxymethyl)-1H-indazol-1-yl)-2-(4-(4-hydroxyphenyl)piperazin-1-yl)-9H-purin-9-yl)acetic acid] | 10 to 97.7 |
| O=C(O)Cn1cnc2c(N3Cc4ccccc4C3)nc(N3CCN(c4ccc(O)cc4)CC3)nc21 [Example 26, 2-(2-(4-(4-hydroxyphenyl)piperazin-1-yl)-6-(isoindolin-2-yl)-9H-purin-9-yl)acetic acid] | 100 to 977 |
| Cc1nc2ccccc2n1-c1nc(N2CCN(c3ccc(O)cc3)CC2)nc2c1ncn2CC(=O)O [Example 28, 2-(2-(4-(4-hydroxyphenyl)piperazin-1-yl)-6-(2-methyl-1H-benzo[d]imidazol-1-yl)-9H-purin-9-yl)acetic acid] | 1000 to 9770 |
| COc1ccc2cnn(-c3nc(N4CCN(c5ccc(O)cc5)CC4)nc4c3ncn4CC(=O)O)c2c1 [Example 50, 2-(2-(4-(4-hydroxyphenyl)piperazin-1-yl)-6-(6-methoxy-1H-indazol-1-yl)-9H-purin-9-yl)acetic acid] | 1000 to 9770 |

| Structure (SMILES) | IC50 [nM] |
| --- | --- |
| C[C@H](Nc1nc(N2CCN(c3ccc(O)cc3)CC2)nc2c1ncn2CCO)c1ccccc1 [Example 4, (S)-4-(4-(9-(2-hydroxyethyl)-6-((1-phenylethyl)amino)-9H-purin-2-yl)piperazin-1-yl)phenol] | > 10000 |
| O=C1CN(c2nc(N3CCN(c4ccc(O)cc4)CC3)nc3c2ncn3-c2ccncc2)CCN1 [Example 174, 4-(2-(4-(4-hydroxyphenyl)piperazin-1-yl)-9-(pyridin-4-yl)-9H-purin-6-yl)piperazin-2-one] | 10 to 97.7 |
| O=C1Cc2cccnc2N1c1nc(N2CCN(c3ccc(O)cc3)CC2)nc2c1ncn2CCO [Example 58, 1-(9-(2-hydroxyethyl)-2-(4-(4-hydroxyphenyl)piperazin-1-yl)-9H-purin-6-yl)-1H-pyrrolo[2,3-b]pyridin-2(3H)-one] | 1000 to 9770 |
| O=C(O)Cn1cnc2c(-n3ncc4ccccc43)nc(N3CC(O)(c4ccccc4)C3)nc21 [Example 221, 2-(2-(3-hydroxy-3-phenylazetidin-1-yl)-6-(1H-indazol-1-yl)-9H-purin-9-yl)acetic acid] | 100 to 977 |
| Nc1nc(N2CCN(c3ccc(CCO)cc3)CC2)nc2c1ncn2-c1ccncc1 [Example 191, 2-(4-(4-(6-amino-9-(pyridin-4-yl)-9H-purin-2-yl)piperazin-1-yl)phenyl)ethan-1-ol] | > 10000 |
| Nc1nc(N2CC(O)(c3ccns3)C2)nc2c1ncn2-c1ccncc1 [Example 213, 1-(6-amino-9-(pyridin-4-yl)-9H-purin-2-yl)-3-(isothiazol-5-yl)azetidin-3-ol] | > 10000 |
| O=C(O)Cn1cnc2c(-n3nnc4cc(Cl)ccc43)nc(N3CCN(c4ccc(O)cc4)CC3)nc21 [Example 19, 2-(6-(5-chloro-1H-benzo[d][1,2,3]triazol-1-yl)-2-(4-(4-hydroxyphenyl)piperazin-1-yl)-9H-purin-9-yl)acetic acid] | 1000 to 9770 |
| COC(=O)CNc1nc(N2CCN(c3ccc(O)cc3)CC2)nc2c1ncn2-c1ccncc1 [Example 162, Methyl (2-(4-(4-hydroxyphenyl)piperazin-1-yl)-9-(pyridin-4-yl)-9H-purin-6-yl)glycinate] | 100 to 977 |
| COc1ccc(-n2cnc3c(N)nc(N4CCN(c5ccc(O)cc5)CC4)nc32)cn1 [Example 85, 4-(4-(6-amino-9-(6-methoxypyridin-3-yl)-9H-purin-2-yl)piperazin-1-yl)phenol] | 100 to 977 |
| CC(C(=O)O)n1cnc2nc(N3CCN(c4ccc(O)cc4)CC3)nc(-n3ncc4ccccc43)c21 (stereo not drawn) [Example 125, 2-(2-(4-(4-hydroxyphenyl)-piperazin-1-yl)-6-(1H-indazol-1-yl)-7H-purin-7-yl)propanoic acid] | 100 to 977 |
| Nc1nc(N2CCN(c3ccc(O)cc3)CC2)nc2c1ncn2-c1ccccc1F [Example 71, 4-(4-(6-amino-9-(2-fluorophenyl)-9H-purin-2-yl)piperazin-1-yl)phenol] | 1000 to 9770 |
| O=C(O)CNC(=O)Cn1cnc2c(-n3ncc4ccccc43)nc(N3CCN(c4ccc(O)cc4)CC3)nc21 [Example 132, 2-(2-(2-(4-(4-hydroxyphenyl)piperazin-1-yl)-6-(1H-indazol-1-yl)-9H-purin-9-yl)acetamido)acetic acid] | 10 to 97.7 |
| O=C(Cn1cnc2c(-n3ncc4ccccc43)nc(N3CCN(c4ccc(O)cc4)CC3)nc21)NS(=O)(=O)c1ccccc1 [Example 97, 2-(2-(4-(4-hydroxyphenyl)piperazin-1-yl)-6-(1H-indazol-1-yl)-9H-purin-9-yl)-N-(phenylsulfonyl)acetamide] | 100 to 977 |
| O=C(O)CCCCn1cnc2c(-n3ncc4ccccc43)nc(N3CCN(c4ccc(O)cc4)CC3)nc21 [Example 150, 5-(2-(4-(4-hydroxyphenyl)piperazin-1-yl)-6-(1H-indazol-1-yl)-9H-purin-9-yl)pentanoic acid] | 10 to 97.7 |
| CN(CC(=O)O)c1nc(N2CCN(c3ccc(O)cc3)CC2)nc2c1ncn2-c1ccncc1 [Example 166, 3N-(2-(4-(4-hydroxyphenyl)piperazin-1-yl)-9-(pyridin-4-yl)-9H-purin-6-yl)-N-methylglycine] | 10 to 97.7 |
| OCCCNc1nc(N2CCN(c3ccc(O)cc3)CC2)nc2c1ncn2-c1cccnc1 [Example 113, 4-(4-(6-((3-hydroxypropyl)amino)-9-(pyridin-3-yl)-9H-purin-2-yl)piperazin-1-yl)phenol] | 100 to 977 |
| Nc1nc(N2CCN(c3ccc(O)cc3)CC2)nc2c1ncn2C1CCNCC1 [Example 188, 4-(4-(6-amino-9-(piperidin-4-yl)-9H-purin-2-yl)piperazin-1-yl)phenol] | > 10000 |
| CCC(CO)N(C)c1nc(N2CCN(c3ccc(O)cc3)CC2)nc2c1ncn2-c1cccnc1 (stereo not drawn) [Example 169, 4-(4-(6-((1-hydroxybutan-2-yl)(methyl)amino)-9-(pyridin-3-yl)-9H-purin-2-yl)piperazin-1-yl)phenol] | 10 to 97.7 |
